We go through 26 compounds from PMC5094563 (Chemmedchem, 2016).

Read-outs that look alike come from different tables or passages of the source.

The conditions of series [1]: male Wistar rats; cited from earlier work.
The conditions of series [2]: male CD1 mice; cited from earlier work.
The conditions of series [3]: female Beagle dogs; cited from earlier work.
The conditions of series [4]: male humans; cited from earlier work.
In series [5] the test system is Caco2. The settings on record: 10 μM, absence of a P‐gp inhibitor; cited from earlier work.
The test system of series [6] is P‐gp. The settings on record: cited from earlier work.
In series [7] the test system is BCRP. The settings on record: cited from earlier work.
Series [8] concerns P‐gp. The settings on record: read-out: P‐gp mediated transport inhibition IC50, cited from earlier work.
Series [9] concerns BCRP. The settings on record: read-out: BCRP mediated transport inhibition IC50; for topotecan; cited from earlier work.
For series [10] the following is noted: all species investigated including mouse, rat, dog and monkey; cited from earlier work.
Series [11] has as its target p110α (Homo sapiens, UniProt P42336). Kind of series: Biochemical IC50 assay.
Series [12] addresses p110β (Homo sapiens, UniProt P42338). Description: Biochemical IC50 assay.

Chain of p110α (P42336 109-1068): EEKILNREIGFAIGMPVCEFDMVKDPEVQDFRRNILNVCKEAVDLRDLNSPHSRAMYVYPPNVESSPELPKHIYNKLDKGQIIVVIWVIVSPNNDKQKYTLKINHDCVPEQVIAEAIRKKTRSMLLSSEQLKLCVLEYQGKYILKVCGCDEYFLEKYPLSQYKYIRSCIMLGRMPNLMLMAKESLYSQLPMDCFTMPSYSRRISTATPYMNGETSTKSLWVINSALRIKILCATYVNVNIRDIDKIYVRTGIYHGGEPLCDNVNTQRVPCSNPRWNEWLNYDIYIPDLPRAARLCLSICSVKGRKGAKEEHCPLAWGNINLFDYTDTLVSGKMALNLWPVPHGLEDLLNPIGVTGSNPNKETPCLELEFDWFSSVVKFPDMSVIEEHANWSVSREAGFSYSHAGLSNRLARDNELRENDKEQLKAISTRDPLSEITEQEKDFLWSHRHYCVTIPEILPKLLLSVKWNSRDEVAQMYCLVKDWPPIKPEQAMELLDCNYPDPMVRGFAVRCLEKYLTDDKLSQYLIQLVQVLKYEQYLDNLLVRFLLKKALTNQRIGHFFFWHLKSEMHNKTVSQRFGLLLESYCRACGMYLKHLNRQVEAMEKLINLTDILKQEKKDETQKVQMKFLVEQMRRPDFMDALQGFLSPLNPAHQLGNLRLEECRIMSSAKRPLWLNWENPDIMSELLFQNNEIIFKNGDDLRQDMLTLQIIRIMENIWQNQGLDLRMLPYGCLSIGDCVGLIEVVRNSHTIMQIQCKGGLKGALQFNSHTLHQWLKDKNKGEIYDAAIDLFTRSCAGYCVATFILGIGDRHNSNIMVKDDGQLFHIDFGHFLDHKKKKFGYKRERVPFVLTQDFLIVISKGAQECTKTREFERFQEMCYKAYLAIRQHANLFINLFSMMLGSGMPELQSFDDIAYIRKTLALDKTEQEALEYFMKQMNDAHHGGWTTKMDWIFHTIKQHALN
Chain of p110β (P42338 109-1070): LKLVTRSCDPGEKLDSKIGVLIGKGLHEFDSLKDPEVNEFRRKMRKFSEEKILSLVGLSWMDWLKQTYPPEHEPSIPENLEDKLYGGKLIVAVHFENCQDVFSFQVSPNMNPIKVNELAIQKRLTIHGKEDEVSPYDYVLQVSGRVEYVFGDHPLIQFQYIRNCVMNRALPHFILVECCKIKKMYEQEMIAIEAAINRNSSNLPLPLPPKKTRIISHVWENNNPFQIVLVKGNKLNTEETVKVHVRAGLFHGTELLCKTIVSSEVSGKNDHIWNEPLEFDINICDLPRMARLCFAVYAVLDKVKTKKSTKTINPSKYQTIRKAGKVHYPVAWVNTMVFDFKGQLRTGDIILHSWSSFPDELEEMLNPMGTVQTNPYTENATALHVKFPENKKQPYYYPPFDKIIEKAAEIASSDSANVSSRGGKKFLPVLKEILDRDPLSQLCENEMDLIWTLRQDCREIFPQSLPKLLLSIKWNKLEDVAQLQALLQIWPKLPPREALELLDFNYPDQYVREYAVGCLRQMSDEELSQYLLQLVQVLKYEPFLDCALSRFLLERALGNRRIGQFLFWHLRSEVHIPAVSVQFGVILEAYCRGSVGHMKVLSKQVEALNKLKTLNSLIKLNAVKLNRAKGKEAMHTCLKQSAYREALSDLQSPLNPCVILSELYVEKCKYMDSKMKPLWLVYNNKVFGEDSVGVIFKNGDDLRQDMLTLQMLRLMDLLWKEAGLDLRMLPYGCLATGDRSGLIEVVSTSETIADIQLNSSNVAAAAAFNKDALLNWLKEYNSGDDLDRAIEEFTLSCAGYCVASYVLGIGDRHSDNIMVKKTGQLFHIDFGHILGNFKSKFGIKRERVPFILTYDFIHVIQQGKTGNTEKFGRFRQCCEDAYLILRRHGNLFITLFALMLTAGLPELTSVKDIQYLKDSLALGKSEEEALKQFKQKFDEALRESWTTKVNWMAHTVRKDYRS

In the case of `COc1c(OCCCN2CCOCC2)ccc2c1N=C(NC(=O)c1cnc(N)nc1)N1CCN=C21` [Compd 39 i, 2‐Amino‐N‐{7‐methoxy‐8‐[3‐(morpholin‐4‐yl)propoxy]‐2,3‐dihydroimidazo[1,2‐c]quinazolin‐5‐yl}pyrimidine‐5‐carboxamide], the “plasma‐free fraction” value is given as 42.5% in series [1], 27.6% in series [2], 42.4% in series [3] and 15.8% in series [4]. For the same compound, in series [5], the “Caco2 P app apical (A) to basal (B)” value is 56.9 ± 2.91 nm/s. The “substrate of efflux transporter P‐gp” value in [6] is on record as “substrate”. In addition, the “substrate of efflux transporter BCRP” value in series [7] is given as “substrate”. Also, the IC50 (as a rule, the midpoint of a concentration-inhibition curve) in series [8] (for digoxin) was 7 µM; in series [8] (for dipyridamole), 7.6 µM; in series [9], 11.5 µM. Also, in [10], the “volume of distribution (V ss)” value was 7 to 32 L/kg.

In the case of `CCOc1ccc2c(c1OC)N=C(NC(=O)c1cccnc1)N1CCN=C21` [Compd 32 b, N ‐(8‐Ethoxy‐7‐methoxy‐2,3‐dihydroimidazo[1,2‐c]quinazolin‐5‐yl)nicotinamide], the figures for the IC50 in series [11] and in series [12] were 0.0036 µM and 0.0761 µM, respectively.

`COc1c(OCCCN(C)C)ccc2c1N=C(NC(=O)c1cccnc1)N1CCN=C21` [Compd 32 e, N ‐{8‐[3‐(Dimethylamino)propoxy]‐7‐methoxy‐2,3‐dihydroimidazo[1,2‐c]quinazolin‐5‐yl}nicotinamide]: the values for the IC50 in [11] and in [12] were 0.0036 µM and 0.018 µM, respectively.

Turning to `COc1c(OCC(C)C)ccc2c1N=C(NC(=O)c1cccnc1)N1CCN=C21` [Compd 32 c, N ‐(8‐Isobutoxy‐7‐methoxy‐2,3‐dihydroimidazo[1,2‐c]quinazolin‐5‐yl)nicotinamide], the IC50 in [11] came to 0.008 µM; in series [12], 0.226 µM.

On to `CC(C)COc1c(OCCCN2CCOCC2)ccc2c1N=C(NC(=O)c1cccnc1)N1CCN=C21` [Compd 34 c, N ‐{7‐Isobutoxy‐8‐[3‐(morpholin‐4‐yl)propoxy]‐2,3‐dihydroimidazo[1,2‐c]quinazolin‐5‐yl}nicotinamide], for which the IC50 turned out to be 0.0102 µM in [11] and 0.0291 µM in [12].

As to `COc1c(OCCCN2CCOCC2)ccc2c1N=C(NC(=O)c1cccnc1)N1CCN=C21` [Compd 32 g, N ‐{7‐Methoxy‐8‐[3‐(morpholin‐4‐yl)propoxy]‐2,3‐dihydroimidazo[1,2‐c]quinazolin‐5‐yl}nicotinamide], the values for the half-inhibitory concentration (IC50) in series [11] and in series [12] were 0.0018 µM and 0.0208 µM, respectively.

For `COc1c(OCCCN2CCOCC2)ccc2c1N=C(NC(=O)c1ccc(N)nc1)N1CCN=C21` [Compd 39 e, 6‐Amino‐N‐{7‐methoxy‐8‐[3‐(morpholin‐4‐yl)propoxy]‐2,3‐dihydroimidazo[1,2‐c]quinazolin‐5‐yl}nicotinamide], the IC50 was 0.0006 µM in [11] and 0.0079 µM in series [12].

As to `COc1c(OCCCN2CCOCC2)ccc2c1N=C(NC(=O)c1ccncc1)N1CCN=C21` [Compd 39 c, N ‐{7‐Methoxy‐8‐[3‐(morpholin‐4‐yl)propoxy]‐2,3‐dihydroimidazo[1,2‐c]quinazolin‐5‐yl}isonicotinamide], the IC50 in [12] stood at 0.0637 µM.

`COc1c(OCCCN2CCOCC2)ccc2c1N=C(NC(=O)c1ccnc(N)c1)N1CCN=C21` [Compd 39 d, 2‐Amino‐N‐{7‐methoxy‐8‐[3‐(morpholin‐4‐yl)propoxy]‐2,3‐dihydroimidazo[1,2‐c]quinazolin‐5‐yl}isonicotinamide]: the IC50 in [11] was 0.0062 µM; in series [12], 0.0166 µM.

With `COc1c(OCCCN2CCOCC2)ccc2c1N=C(NC(=O)c1cnccn1)N1CCN=C21` [Compd 39 g, N ‐{7‐Methoxy‐8‐[3‐(morpholin‐4‐yl)propoxy]‐2,3‐dihydroimidazo[1,2‐c]quinazolin‐5‐yl}pyrazine‐2‐carboxamide], the IC50 in series [12] came to 0.351 µM.

As for `O=C(NC1=Nc2c(ccc(OCCCN3CCOCC3)c2OCc2ccncc2)C2=NCCN12)c1cccnc1` [Compd 34 f, N ‐{8‐[3‐(Morpholin‐4‐yl)propoxy]‐7‐[(pyridin‐4‐yl)methoxy]‐2,3‐dihydroimidazo[1,2‐c]quinazolin‐5‐yl}nicotinamide], 0.0193 µM corresponded to half-maximal inhibition in series [12] (IC50).

In the case of `COc1c(OCCCN2CCOCC2)ccc2c1N=C(NC(=O)c1cncnc1)N1CCN=C21` [Compd 39 h, N ‐{7‐Methoxy‐8‐[3‐(morpholin‐4‐yl)propoxy]‐2,3‐dihydroimidazo[1,2‐c]quinazolin‐5‐yl}pyrimidine‐5‐carboxamide], the figures for the IC50 in series [11] and in series [12] were 0.132 µM and 0.286 µM, respectively.

For the compound `COc1c(OCCCN2CCCCC2)ccc2c1N=C(NC(=O)c1cccnc1)N1CCN=C21` [Compd 32 f, N ‐{7‐Methoxy‐8‐[3‐(piperidin‐1‐yl)propoxy]‐2,3‐dihydroimidazo[1,2‐c]quinazolin‐5‐yl}nicotinamide], the figures for the IC50 in [11] and in [12] were 0.0029 µM and 0.0183 µM, respectively.

With `COc1c(OCCCN2CCOCC2)ccc2c1N=C(NC(=O)c1ccc(N(C)C)nc1)N1CCN=C21` [Compd 39 f, 6‐(Dimethylamino)‐N‐{7‐methoxy‐8‐[3‐(morpholin‐4‐yl)propoxy]‐2,3‐dihydroimidazo[1,2‐c]quinazolin‐5‐yl}nicotinamide], the IC50 in series [11] is 0.0029 µM; in series [12], 0.0587 µM.

Regarding `COc1c(OCCCN2CCOCC2)ccc2c1N=C(NC(=O)c1sc(C)nc1C)N1CCN=C21` [Compd 39 b, N ‐{7‐Methoxy‐8‐[3‐(morpholin‐4‐yl)propoxy]‐2,3‐dihydroimidazo[1,2‐c]quinazolin‐5‐yl}‐2,4‐dimethyl‐1,3‐thiazole‐5‐carboxamide], the figures for the IC50 in [11] and in series [12] were 0.0016 µM and 0.0078 µM, respectively.

`O=C(NC1=Nc2c(ccc(OCCCN3CCOCC3)c2OCC2CCCCC2)C2=NCCN12)c1cccnc1` [Compd 34 d, N ‐{7‐(Cyclohexylmethoxy)‐8‐[3‐(morpholin‐4‐yl)propoxy]‐2,3‐dihydroimidazo[1,2‐c]quinazolin‐5‐yl}nicotinamide] gave a half-maximal inhibitory concentration (IC50) in [12] of 0.0885 µM.

For the compound `COc1c(OCCCCN2CCOCC2)ccc2c1N=C(NC(=O)c1cccnc1)N1CCN=C21` [Compd 32 i, N ‐{7‐Methoxy‐8‐[4‐(morpholin‐4‐yl)butoxy]‐2,3‐dihydroimidazo[1,2‐c]quinazolin‐5‐yl}nicotinamide], half-maximal inhibition in [12] (IC50) was put at 0.0881 µM.

`O=C(NC1=Nc2c(ccc(OCCCN3CCOCC3)c2O)C2=NCCN12)c1cccnc1` [Compd 33, N ‐{7‐Hydroxy‐8‐[3‐(morpholin‐4‐yl)propoxy]‐2,3‐dihydroimidazo[1,2‐c]quinazolin‐5‐yl}nicotinamide]: the IC50 in series [12] stood at 0.0556 µM.

`CCCOc1c(OCCCN2CCOCC2)ccc2c1N=C(NC(=O)c1cccnc1)N1CCN=C21` [Compd 34 a, N ‐{8‐[3‐(Morpholin‐4‐yl)propoxy]‐7‐propoxy‐2,3‐dihydroimidazo[1,2‐c]quinazolin‐5‐yl}nicotinamide]: in series [12], it took 0.0078 µM to reach half-maximal inhibition (IC50).

For the compound `O=C(NC1=Nc2c(ccc(OCCCN3CCOCC3)c2OCC2CCOCC2)C2=NCCN12)c1cccnc1` [Compd 34 e, N ‐{8‐[3‐(Morpholin‐4‐yl)propoxy]‐7‐[(tetrahydro‐2H‐pyran‐4‐yl)methoxy]‐2,3‐dihydroimidazo[1,2‐c]quinazolin‐5‐yl}nicotinamide], the IC50 in series [11] turned out to be 0.0021 µM; in series [12], 0.0182 µM.

In the case of `C=CCOc1c(OCCCN2CCOCC2)ccc2c1N=C(NC(=O)c1cccnc1)N1CCN=C21` [Compd 34 b, N ‐{7‐(Allyloxy)‐8‐[3‐(morpholin‐4‐yl)propoxy]‐2,3‐dihydroimidazo[1,2‐c]quinazolin‐5‐yl}nicotinamide], the IC50 in series [12] is 0.0226 µM.

In the case of `COc1c(O)ccc2c1N=C(NC(=O)c1cccnc1)N1CCN=C21` [Compd 31, N ‐(8‐Hydroxy‐7‐methoxy‐2,3‐dihydroimidazo[1,2‐c]quinazolin‐5‐yl)nicotinamide], the IC50 turned out to be 0.0087 µM in series [11] and 0.21 µM in series [12].

With `COc1c(OCCCN2CCOCC2)ccc2c1N=C(NC(=O)c1cnc(N)nc1C)N1CCN=C21` [Compd 39 j, 2‐Amino‐N‐{7‐methoxy‐8‐[3‐(morpholin‐4‐yl)propoxy]‐2,3‐dihydroimidazo[1,2‐c]quinazolin‐5‐yl}‐4‐methylpyrimidine‐5‐carboxamide], the figures for the IC50 in series [11] and in [12] were 0.0004 µM and 0.001 µM, respectively.

As to `COc1c(OCCN2CCOCC2)ccc2c1N=C(NC(=O)c1cccnc1)N1CCN=C21` [Compd 32 h, N ‐{7‐Methoxy‐8‐[2‐(morpholin‐4‐yl)ethoxy]‐2,3‐dihydroimidazo[1,2‐c]quinazolin‐5‐yl}nicotinamide], the IC50 was determined as 0.0009 µM in series [11] and 0.0112 µM in [12].

As for `COc1c(OCc2ccccc2)ccc2c1N=C(NC(=O)c1cccnc1)N1CCN=C21` [Compd 30, N ‐[8‐(Benzyloxy)‐7‐methoxy‐2,3‐dihydroimidazo[1,2‐c]quinazolin‐5‐yl]nicotinamide], the IC50 in [11] worked out at 0.0061 µM; in [12] it was 1.51 µM.

`COc1c(OCCCN2CCOCC2)ccc2c1N=C(NC(=O)c1ccc3c(c1)OCO3)N1CCN=C21` [Compd 39 a, N ‐{7‐Methoxy‐8‐[3‐(morpholin‐4‐yl)propoxy]‐2,3‐dihydroimidazo[1,2‐c]quinazolin‐5‐yl}‐1,3‐benzodioxole‐5‐carboxamide]: the 50% inhibitory concentration (IC50) in series [11] was 0.0209 µM; in series [12], 0.668 µM.
